Data as given in ChEMBL document CHEMBL1201862, “PubChem BioAssay data set” (2004).
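Grown in 96-well plates, cells were treated for 48 hours with each compound at five concentrations. Insufficient inhibition: endpoint recorded as highest concentration tested. Abbreviation: GI50, concentration required for 50% inhibition of growth.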 Active and inactive are the calls of the source. Rule as the data show it: active = GI50 up to about 1.1 µM and inactive = higher.

Assays:
Experiment in all cases: NCI anticancer screen, dose series, 48 h
CCRF-CEM = test system: CCRF-CEM
MCF7 = test system: MCF7
HCT-116 = test system: HCT-116
SR = test system: SR
M14 = test system: M14
Hs-578T = test system: Hs-578T
U-251 = test system: U-251
BT-549 = test system: BT-549
RPMI-8226 = test system: RPMI-8226
786-0 = test system: 786-0
OVCAR-8 = test system: OVCAR-8
IGROV-1 = test system: IGROV-1
TK-10 = test system: TK-10
MDA-N = test system: MDA-N
OVCAR-4 = test system: OVCAR-4
SK-MEL-2 = test system: SK-MEL-2
MDA-MB-231 = test system: MDA-MB-231
NCI-H460 = test system: NCI-H460
A498 = test system: A498

Measured: GI50

CCOC(=O)C(NCc1cccc(C(F)(F)F)c1)(NC(=O)CC)C(F)(F)F (configuration not stated)
inactive: CCRF-CEM > 100 µM | MCF7 > 100 µM | HCT-116 > 100 µM | SR > 100 µM | M14 > 100 µM | Hs-578T > 100 µM | U-251 > 100 µM | BT-549 > 100 µM | RPMI-8226 26 µM | 786-0 > 100 µM | OVCAR-8 > 100 µM | IGROV-1 18 µM | TK-10 > 100 µM | MDA-N > 100 µM | OVCAR-4 > 100 µM | SK-MEL-2 > 100 µM | MDA-MB-231 31.8 µM

Cc1ccc(C2=Nc3cc(C)c(Cl)cc3S(=O)(=O)NN2)cc1
inactive: CCRF-CEM 38.5 µM | MCF7 > 100 µM | HCT-116 > 100 µM | SR 20 µM | M14 > 100 µM | Hs-578T > 100 µM | U-251 > 100 µM | BT-549 > 100 µM | RPMI-8226 > 100 µM | 786-0 58.1 µM | NCI-H460 > 100 µM | OVCAR-8 > 100 µM | IGROV-1 > 100 µM | TK-10 49.5 µM | MDA-N > 100 µM | OVCAR-4 77.4 µM | A498 > 100 µM | MDA-MB-231 23.3 µM

NS(=O)(=O)c1ccc(-c2ccc([As](=O)(O)O)cc2)cc1
inactive: MCF7 > 100 µM | HCT-116 > 100 µM | SR > 100 µM | M14 > 100 µM | Hs-578T > 100 µM | U-251 > 100 µM | BT-549 > 100 µM | RPMI-8226 > 100 µM | 786-0 > 100 µM | NCI-H460 > 100 µM | OVCAR-8 > 100 µM | IGROV-1 > 100 µM | TK-10 > 100 µM | MDA-N > 100 µM | OVCAR-4 > 100 µM | SK-MEL-2 > 100 µM | MDA-MB-231 > 100 µM

CC(C)C(C/C=C1\CC(CO)(COC(=O)CC(C(C)C)C(C)C)OC1=O)C(C)C (configuration not stated)
inactive: CCRF-CEM 4.06 µM | MCF7 15.7 µM | HCT-116 14.1 µM | SR 12.4 µM | M14 11.7 µM | Hs-578T 3.8 µM | U-251 13.8 µM | BT-549 14.6 µM | 786-0 7.03 µM | NCI-H460 4.07 µM | OVCAR-8 17.9 µM | IGROV-1 14.7 µM | TK-10 7.31 µM | MDA-N 2.96 µM | OVCAR-4 17.6 µM | SK-MEL-2 20.9 µM | A498 11.7 µM | MDA-MB-231 12.8 µM

C/C=C(/COC(C)=O)C(=O)OC1C=C(C=O)C(C)(C)C=C1C (configuration not stated)
inactive: CCRF-CEM 37.7 µM | MCF7 87.7 µM | HCT-116 > 100 µM | SR 27.5 µM | M14 > 100 µM | Hs-578T > 100 µM | U-251 > 100 µM | BT-549 > 100 µM | 786-0 > 100 µM | NCI-H460 > 100 µM | OVCAR-8 > 100 µM | IGROV-1 96.6 µM | TK-10 > 100 µM | MDA-N > 100 µM | OVCAR-4 > 100 µM | SK-MEL-2 > 100 µM | A498 > 100 µM | MDA-MB-231 > 100 µM

Nc1cc2ncnn2c(SCC(=O)N/N=C/C(Br)=C\c2ccccc2)n1
inactive: CCRF-CEM 5.77 µM | MCF7 14.7 µM | HCT-116 21.7 µM | SR 10.6 µM | Hs-578T 23.1 µM | U-251 5.24 µM | BT-549 17.3 µM | RPMI-8226 10.6 µM | 786-0 15.1 µM | NCI-H460 17.3 µM | OVCAR-8 15.9 µM | IGROV-1 11.5 µM | TK-10 31.8 µM | MDA-N 16.2 µM | MDA-MB-231 15.5 µM

N=C1/C(=C/c2ccccc2)C(=O)N=C2SC=NN12
inactive: CCRF-CEM > 100 µM | MCF7 > 100 µM | HCT-116 > 100 µM | SR > 100 µM | M14 > 100 µM | Hs-578T > 100 µM | U-251 > 100 µM | BT-549 > 100 µM | RPMI-8226 > 100 µM | 786-0 > 100 µM | NCI-H460 > 100 µM | OVCAR-8 > 100 µM | IGROV-1 > 100 µM | TK-10 > 100 µM | MDA-N > 100 µM | OVCAR-4 > 100 µM | SK-MEL-2 > 100 µM | MDA-MB-231 > 100 µM

COC(=O)c1ccccc1NC(=O)/C(=N\NC(C)(C)C)C(C#N)c1nc(-c2ccc([N+](=O)[O-])cc2)cs1 (configuration not stated)
inactive: CCRF-CEM > 100 µM | MCF7 > 100 µM | HCT-116 > 100 µM | SR > 100 µM | M14 > 100 µM | Hs-578T > 100 µM | U-251 > 100 µM | BT-549 > 100 µM | RPMI-8226 > 100 µM | 786-0 > 100 µM | NCI-H460 > 100 µM | OVCAR-8 > 100 µM | IGROV-1 > 100 µM | MDA-N > 100 µM | OVCAR-4 > 100 µM | SK-MEL-2 > 100 µM | A498 > 100 µM | MDA-MB-231 > 100 µM

CC1CCN(c2nnc(Cl)cc2C(=O)c2ccccc2)CC1
inactive: CCRF-CEM 13.5 µM | MCF7 19.4 µM | HCT-116 29.6 µM | SR 17.5 µM | M14 27 µM | Hs-578T 20 µM | U-251 31.1 µM | BT-549 30.3 µM | 786-0 41.7 µM | NCI-H460 29.5 µM | OVCAR-8 58.7 µM | IGROV-1 35.3 µM | TK-10 37.6 µM | MDA-N 21.7 µM | OVCAR-4 29.2 µM | SK-MEL-2 18.5 µM | A498 35.7 µM | MDA-MB-231 27.5 µM

CCC(C)C(=O)OC1CC2(C)C(c3ccoc3)OC(=O)CC23OC2(C)OC34C(OC(=O)C(C)C)C3(O)C(OC(=O)C5(C)OC5C)C5(C)CC3(O)C(C)(C5CC(=O)OC)C14O2 (configuration not stated)
inactive: CCRF-CEM 28.6 µM | MCF7 17.6 µM | HCT-116 54.7 µM | SR 24.1 µM | M14 42.9 µM | Hs-578T 14.5 µM | U-251 86.1 µM | BT-549 60.7 µM | 786-0 > 100 µM | NCI-H460 36.3 µM | OVCAR-8 52.6 µM | IGROV-1 64.4 µM | TK-10 65 µM | MDA-N 47.1 µM | OVCAR-4 38.4 µM | SK-MEL-2 68.7 µM | A498 75.5 µM | MDA-MB-231 56.2 µM

CN(C)c1ccc(/C=C(\NC(=O)c2ccccc2)C(=O)Nc2ccccc2C(=O)NN2C(=O)CSC2c2ccc(N(C)C)cc2)cc1 (configuration not stated)
inactive: CCRF-CEM > 100 µM | MCF7 > 100 µM | HCT-116 > 100 µM | SR > 100 µM | M14 > 100 µM | Hs-578T > 100 µM | U-251 > 100 µM | BT-549 > 100 µM | RPMI-8226 > 100 µM | 786-0 80.2 µM | NCI-H460 10.7 µM | OVCAR-8 > 100 µM | IGROV-1 > 100 µM | MDA-N > 100 µM | SK-MEL-2 > 100 µM | A498 > 100 µM | MDA-MB-231 > 100 µM
